Laboratory results reported in publication PMC11313180 (International Journal of Molecular Sciences, 2024).
Where two headings read alike, the source gives them in different places.

Columns and labels:
[1] = tested on: MCF-7; assay: MTT cell viability assay, MCF-7; assay type: cell-based, human; conditions: for IC50: Homo sapiens
Procedure: (§1) MTT assays were performed as previously described. […] After incubation time, medium was replaced by MTT (solution of 5 mg/mL 3-(4,5-dimethylthiazol-2-yl)-2,5-diphenyl-tetrazoliumbromidin in phosphate buffered saline, Serva, Heidelberg, Germany).

[2] = tested on: T47D; assay: MTT cell viability assay, T47D; assay type: cell-based, human; conditions: for IC50: Homo sapiens, T47D
Procedure: as §1

[3] = tested on: MDA-MB-231; assay: MTT cell viability assay, MDA-MB-231; assay type: cell-based, human; conditions: for IC50: Homo sapiens
Procedure: MTT assays were performed as previously described. Cell numbers plated differed depending on each incubation time: MDA-MB-231 5000 c/w, MCF-7 5000 c/w (72 h) and 3000 c/w (120 h), T-47D 10,000 c/w (72 h) and 5000 c/w /120 h). After incubation time, medium was replaced by MTT (solution of 5 mg/mL 3-(4,5-dimethylthiazol-2-yl)-2,5-diphenyl-tetrazoliumbromidin in phosphate buffered saline, Serva, Heidelberg, Germany). After 10 min (MCF-7), 20 min (MDA-MB-231), and 30 min (T47D) and dissolving in DMSO (VWR, Langenfeld, Germany), absorbance was measured at 544 nm and 690 nm in a FLUOstar microplate reader (BMG LabTech, Offenburg, Germany).

[4] = tested on: MCF-7; assay: Cell proliferation by counting Hoechst 33342-stained nuclei, MCF-7; assay type: cell-based, human; conditions: 1 µM, 72 h
Procedure: (§2) Figure 3 Cell proliferation of MCF-7 (a) and T47D cells (b) measured via Hoechst 33342 staining. […] Shown is one representative experiment out of a series of at least three experiments each performed with 3 replicates. Data are mean ± SD. Statistical comparison was performed using a t-test. Levels of significance: ** (p ≤ 0.01); **** (p ≤ 0.0001). Exe = exemestane. (R)-LA = (R)-α-lipoic acid.

[5] = tested on: T47D; assay: Cell proliferation by counting Hoechst 33342-stained nuclei, T47D; assay type: cell-based, human; conditions: 1 µM, 72 h
Procedure: as §2

[6] = tested on: MCF-7; assay: Long-term (10 days) live/dead proliferation assay, calcein AM and Hoechst 33342, MCF-7; assay type: cell-based, human; conditions: 1 µM exemestane, 1 mM (R)-α-lipoic acid
Procedure: (§3) Cells were seeded on day one in 96-well plates. […] Then, cells were stained with calcein AM (Millipore Corporation, Billerica, MA, USA) and Hoechst 33342 (Tocris Bioscience, Bristol, UK) for 30 min and fluorescence images monitored by Leica DMi8 Thunder Imager (Leica Microsystems CMS GmbH, Wetzlar, Germany). Five images per well were monitored randomly. Calcein AM- and Hoechst 33342-stained area of the images (i.e., live proliferating cells) were evaluated.

[7] = tested on: T47D; assay: Long-term (10 days) live/dead proliferation assay, calcein AM and Hoechst 33342, T47D; assay type: cell-based, human; conditions: 1 µM exemestane, 1 mM (R)-α-lipoic acid
Procedure: as §3

[8] = tested on: caspase 3/7 in MCF-7 cells; assay: Caspase 3/7 activation assay, MCF-7; assay type: cell-based, human; conditions: 24 h; 1 µM exemestane, 0.5 mM or 1 mM (R)-α-lipoic acid
Procedure: (§4) To analyze the compound-induced activation of capases 3 and 7, the CellEvent caspase 3/7 green detection reagent (Thermo Scientific, Wesel, Germany) was used according to the manufacturer’s instructions. […] After 24 h incubation, medium was removed, and cells were stained with 50 µL of CellEvent caspase 3/7 green detection reagent (2 µM in PBS supplemented with 5% heat-inactivated FBS). Cells were incubated for 30 min at 37 °C in a humidified incubator before imaging by using the Thermo Fisher ArrayScan XTI high content screening (HCS) system with a 10× magnification (Thermo Scientific). Hoechst 33342 was added for nuclei staining.

[9] = tested on: caspase 3/7 in T47D cells; assay: Caspase 3/7 activation assay, T47D; assay type: cell-based, human; conditions: 24 h; 1 µM exemestane, 0.5 mM or 1 mM (R)-α-lipoic acid
Procedure: as §4

[10] = tested on: MCF-7; assay: Immunoblotting, MCF-7; assay type: cell-based, human; conditions: 48 h; 1 mM (R)-α-lipoic acid, 1 µM exemestane
Procedure: (§5) A quantity of 20 or 40 µg of total protein as well as, from PageRuler Prestained Protein Ladder, 10–180 kDA (Thermo Scientific, Wesel, Germany), were resolved by SDS-Page (12% polyacrylamide gel) and transferred to polyvinylidene fluoride membrane (Millipore Corporation, Billerica, MA, USA). Blots were incubated with primary antibodies against acetylated a -tubulin (Cat. No. sc-23950), a -tubulin (Cat. No. sc-8035) (Santa Cruz Biotechnology, Heidelberg, Germany), acetyl histone h3 (Cat. No. 39140) and histone H3 (Cat. No. NB100-1669), ß-actine (Cat. No. sc-47778), p21 (AF1047), c-myk (Cat. No. MAB3696), APAF1 (Cat. No. MAB868), BIM (Cat. No. NBP1-76936), FOXO1 (Cat. No. C29H4), BCL-2 (Cat. No. AF810), and survivin (Cat. No. AF886). After another one-hour incubation with the appropriate HRP-conjugated secondary antibody, proteins were visualized by Intas Imager (Intas, Göttingen, Germany) using luminol reagent (Santa Cruz Biotechnology, Heidelberg, Germany).

[11] = tested on: T47D; assay: Immunoblotting, T47D; assay type: cell-based, human; conditions: 48 h; 1 mM (R)-α-lipoic acid, 1 µM exemestane
Procedure: as §5

[12] = tested on: MCF-7 cells; design: method as in PMID 25738757; conditions: ref [30]; read-out: IC50 in MCF-7 cells, literature; cited from earlier work

C=C1C[C@@H]2[C@H](CC[C@]3(C)C(=O)CC[C@@H]23)[C@@]2(C)C=CC(=O)C=C12 [exemestane]
inhibition of cell viability, MCF-7 ([1]; 1 µM alone, 120 h MTT): 10.2% | increase in potency by prolongation of incubation time, MCF-7 ([1]; 120 h versus 72 h MTT): 1.8 fold | IC50 ([1]; MCF7, 72 h, read-out: IC50 MCF-7, 72 h MTT assay): 29.1 ± 1.3 µM | IC50 ([1]; MCF7, 72 h, read-out: IC50 of exemestane, MCF-7 (Figure 2a)): 42.6 µM | IC50 ([1]; MCF7, 120 h, read-out: IC50 of exemestane, MCF-7 (Figure 4a)): 16.9 µM | IC50 ([1]; MCF7, 120 h, IC50 ± SEM, read-out: IC50 MCF-7, 120 h MTT assay): 16.1 ± 0.84 µM | inhibition of cell viability, T47D ([2]; 1 µM alone, 120 h MTT): no | increase in potency by prolongation of incubation time, T47D ([2]; 120 h versus 72 h MTT): 1.8 fold | IC50 ([2]; 72 h, read-out: IC50 T-47D, 72 h MTT assay): 50.6 ± 2.04 µM | IC50 ([2]; 72 h, read-out: IC50 of exemestane, T-47D (Figure 2b)): 39.2 µM | IC50 ([2]; 120 h, read-out: IC50 of exemestane, T-47D (Figure 4b)): 24.7 µM | IC50 ([2]; 120 h, IC50 ± SEM, read-out: IC50 T-47D, 120 h MTT assay): 28.7 ± 0.75 µM | less potent in MDA-MB-231 compared to MCF-7 ([3]; 72 h MTT IC50 ratio): 3 fold | less potent in MDA-MB-231 compared to T47D ([3]; 72 h MTT IC50 ratio): 1.8 fold | increase in potency by prolongation of incubation time, MDA-MB-231 ([3]; 120 h versus 72 h MTT): 1.7 fold | IC50 ([3]; MDA-MB-231, 72 h, read-out: IC50 MDA-MB-231, 72 h MTT assay): 89.4 ± 2.86 µM | IC50 ([3]; MDA-MB-231, 120 h, IC50 ± SEM, read-out: IC50 MDA-MB-231, 120 h MTT assay): 53.3 ± 3.62 µM | decrease of the number of nuclei, MCF-7 [4]: around 37% | decrease of the number of nuclei, T47D [5]: around 37% | proliferation and doubling time over 10 days, MCF-7 [6]: difference between the untreated control and 1 µM exemestane is small | proliferation and doubling time over 10 days, T47D [7]: doubling time was not different between exemestane treatment and untreated condition | caspase 3/7 activation, MCF-7 [8]: no caspase 3/7 activation | caspase 3/7 activation, T47D [9]: no caspase 3/7 activation | expression of survivin and c-myk, MCF-7 [10]: not affected | expression of survivin and c-myk, T47D [11]: not affected | IC50 [12]: 30 µM
